Experimental data from patent US12435091B2, “RNA-binding protein multimerization inhibitors and methods of use thereof” (THE UAB RESEARCH FOUNDATION, priority 2020, dated 2025).
≈ marks a conversion by molar mass, not a printed value.

Key:
[1] = aqueous solubility at pH 7.4; type: physicochemical; conditions: aqueous medium at pH 7.4, pH 7.4, aqueous buffer; read-out: Sol @ pH 7.4
Experimental: (§5) Selected compounds were assessed for their aqueous solubility, Log D and mouse and human liver microsomal stability.

[2] = system: microglial lysates (iNOS, HuR, KSRP, Arginase 1, YM1); experiment: Western blot analysis of microglial lysates; type: cell-based, mouse; conditions: 1.0 μM
LN229 glioma cell line = experiment: cell cycle analysis (propidium iodide, flow cytometry); type: cell-based; conditions: LN229, 10 uM for 18 hours
Experimental: (§1) Cell cycle distribution was evaluated using a standard staining procedure with propidium iodide (PI) (Sigma-Aldrich; St. Louis, MO) followed by flow cytometry. For cell cycle analysis, cells were plated at low density and synchronized by starvation in serum-free media for 48 hours, then treated with drug or vehicle (control) for 18 hours in normal media with 10% serum. Next, cells were collected, washed, and resuspended in ice-cold phosphate buffered saline (PBS). Cells were fixed under gentle vortexing by dropwise addition of a 10×volume of ice-cold 80% ethanol (−20° C.) on ice. Subsequently, samples were stored at −20° C. for at least 18 hours until data acquisition. Before cell cycle analysis, cells were washed in PBS and treated with RNase A (200 μg/mL, in PBS) and PI (20 μg/mL) for 45 minutes at 23° C. Acquisition of at least 10000 events per sample was performed in UAB Flow Cytometry Facility. Data were analyzed by FlowJo v10 software (Becton, Dickinson and Company; Franklin Lakes, NJ).
(§2) HuR is one of the key regulators of cell cycle progression in cancer cells, particularly high-grade glioma; therefore, the arrest of cell cycle progression by the newly identified compounds supports HuR-targeted inhibition. FIG. 5B illustrates representative histograms of cell cycle progression in the established U251, LN229, and the PDGx XD456 glioma cell lines in the control (treatment with vehicles) and after treatment with SRI-42127. The bar graph represents the average numbers of cells in each phase of the cell cycle after treatment with the SRI-42127 normalized to the corresponding control values (vehicle treatment). There was a significant accumulation of cells in the G1 phase and a reduction of cells in the S phase after treatment with SRI-42127, 10 uM for 18 hours. […] The average reductions of cells in the S phase were 65±4% (n=3), 60±3% (n=3), and 70±3% (n=3) in U251, LN229, and XD456 cell lines, respectively, after treatment with SRI-42127 compared to the control.

[3] = system: PDGx XD456 glioma cell line; experiment: as above; type: cell-based; conditions: XD456, 10 uM for 18 hours
Experimental: as §1, §2

U251 glioma cell line = experiment: as above; type: cell-based; conditions: U251, 10 uM for 18 hours
Experimental: as §1, §2

in vitro = conditions: human, liver microsomes
Experimental: as §5

[4] = system: HuR cytoplasmic translocation in primary microglial cells; experiment: Imagestream single cell flow cytometry of HuR location in LPS-activated microglia; type: cell-based, mouse; conditions: 1 μM
Experimental: Cultured primary microglial cells isolated from neonatal mouse brain were treated with LPS to achieve activation. Cells were then treated with varying doses of SRI-42127 or vehicle. Imagestream single cell flow cytometry was used to track the location of HuR within microglial cells as depicted in FIG. 11, Panel A. DAPI was used as a flow marker for nuclear localization. For each cell, the percentage of HuR immunofluorescence that colocalized with the nuclear compartment versus the cytoplasmic compartment was quantified.
In the unstimulated state (DMSO), the characteristic nuclear predominance of HuR was observed as reflected by a low percentage of cells with high HuR in the cytoplasm. With LPS stimulation, there was an ˜8-fold increase in the percent of cells with high levels of HuR in the cytoplasm (˜60%). With SRI-42127 treatment, there was a significant dose-dependent decrease in cells with high cytoplasmic HuR. At 1 μM of SRI-42127, the percent of cells with high HuR was similar to resting (unactivated) microglia (˜10%).

XD456 cell line = experiment: soft agar colony formation assay; type: cell-based; conditions: 3 uM
Experimental: (§3) The soft agar colony formation assay was performed by using 0.9% and 0.45% agarose for the bottom and the top layers, respectively; cells were incorporated in the top layer. Seaplaque low-melting temperature agarose was purchased from Lonza (Rockland, ME). Five hundred cells per well were utilized in both, the soft agar and the attached colony formation assays, which were performed in 6 well plates; cells were treated with vehicle as the control or with the desired drugs, which were administered twice per week for three weeks. The Crystal violet solution (0.1%) was utilized for colony staining in both assays. The colonies were counted after three weeks of treatment; the plate images were obtained by using Amersham Imager-600 reader (Piscataway, NJ).
(§4) Graphs in FIG. 8D illustrate the average numbers of colonies formed by established U251 and PDGx XD456 cell lines in the attached cell colony formation assay and in the soft agar colony formation assay, which represents anchorage independent cell growth.

U251 cell line = experiment: soft agar colony formation assay; type: cell-based; conditions: 3 uM
Experimental: as §3, §4

Log D at pH 7.4 = type: physicochemical
Experimental: as §5

Q: For CN(c1ccc2ncc(-c3ccc4cn[nH]c4c3)n2n1)C1CCOCC1 [Compound 19], which solubility [1] is on record?
A: 2.4 µM (≈ 0.836 µg/mL)

Q: What about the “suppression of iNOS protein” value [2] of the same compound?
A: 4.2 fold

Q: What about the “increase of cells in the G1 phase compared to the control” value (“increase of cells in the G1 phase” below) (LN229 glioma cell line) of the same compound?
A: 56±28%

Q: What about the “reduction of cells in the S phase compared to the control” value (“reduction of cells in the S phase” for short) (LN229 glioma cell line) of the same compound?
A: 60±3%

Q: What about the “increase of cells in the G1 phase” value [3] of the same compound?
A: 210±40%

Q: And the “reduction of cells in the S phase” value [3]?
A: 70±3%

Q: And the “increase of cells in the G1 phase” value (U251 glioma cell line)?
A: 97±33%

Q: What about the “reduction of cells in the S phase” value (U251 glioma cell line) of the same compound?
A: 65±4%

Q: What about the half-life (in vitro) of the same compound?
A: 8.6 min

Q: What about the “percent of cells with high cytoplasmic HuR” value [4] of the same compound?
A: ~10%

Q: And the number of colonies (XD456 cell line)?
A: 39+6

Q: What about the number of colonies (U251 cell line) of the same compound?
A: 90+70

Q: And the logD (Log D at pH 7.4)?
A: 3.1
